Laboratory results from patent US20260137697A1, “THIAZOLO[5,4-D]PYRIMIDINE COMPOUNDS, COMPOSITIONS COMPRISING THEM AND USES THEREOF” (University de Montreal, priority 2022, published 2026).

How the values were obtained:
[1] = biological target: T1, CRAF (Homo sapiens, UniProt P04049); assay: CRAF kinase activity assay (ADP-Glo); format: biochemical; settings: Table 3; 10 μM ATP, kinase-dead MEK1 substrate
T1 construct: fused on or other part: GST tag (N-terminal according to the vendor's product)
Procedure, shortened: (§1)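 ADP-Glo luminescence read after 2 h reactions at 30° C containing 0.375 nM GST-kinase, kinase-dead MEK1 (75 nM), ATP at 10 μM, pH 7.5 HEPES/MgCl2/DTT, 0.05% DMSO. Compounds dosed from 100 to 0.01 nM (nine points); IC50 from variable-slope fit of % inhibition.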

[2] = biological target: T2, BRAF (Homo sapiens, UniProt P15056); assay: BRAF kinase activity assay (ADP-Glo); format: biochemical; settings: Table 3; 10 μM ATP, kinase-dead MEK1 substrate
T2 construct: GST; purchased Millipore Sigma B4062-10UG
Procedure, shortened: as §1

[3] = tested on: pERK, HCT116 cells; assay: Phospho-ERK inhibition, AlphaLISA p-ERK 1/2, HCT-116; format: cell-based, human; settings: Table 3; for IC50: HCT116 cells (KRAS G13D), 1 h treatment; for HCT116 pERK (Ymin %): lowest % inhibition value of the pERK IC50 curve, above −20% = no paradoxical induction
Procedure, shortened: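 Cells in RPMI-1640 with 5% FBS plated overnight, then treated 1 h with ten-point dilutions (10 μM to 0.33 nM, 0.5% DMSO). Lysate p-ERK1/2 (Thr202/Tyr204) read by AlphaLISA SureFire Ultra; % inhibition normalised to DMSO and 1 μM trametinib background, IC50 by four-parameter fit.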

T1 sequence (P04049 whole entry Y340E/Y341E, form open, the tested form may be a part): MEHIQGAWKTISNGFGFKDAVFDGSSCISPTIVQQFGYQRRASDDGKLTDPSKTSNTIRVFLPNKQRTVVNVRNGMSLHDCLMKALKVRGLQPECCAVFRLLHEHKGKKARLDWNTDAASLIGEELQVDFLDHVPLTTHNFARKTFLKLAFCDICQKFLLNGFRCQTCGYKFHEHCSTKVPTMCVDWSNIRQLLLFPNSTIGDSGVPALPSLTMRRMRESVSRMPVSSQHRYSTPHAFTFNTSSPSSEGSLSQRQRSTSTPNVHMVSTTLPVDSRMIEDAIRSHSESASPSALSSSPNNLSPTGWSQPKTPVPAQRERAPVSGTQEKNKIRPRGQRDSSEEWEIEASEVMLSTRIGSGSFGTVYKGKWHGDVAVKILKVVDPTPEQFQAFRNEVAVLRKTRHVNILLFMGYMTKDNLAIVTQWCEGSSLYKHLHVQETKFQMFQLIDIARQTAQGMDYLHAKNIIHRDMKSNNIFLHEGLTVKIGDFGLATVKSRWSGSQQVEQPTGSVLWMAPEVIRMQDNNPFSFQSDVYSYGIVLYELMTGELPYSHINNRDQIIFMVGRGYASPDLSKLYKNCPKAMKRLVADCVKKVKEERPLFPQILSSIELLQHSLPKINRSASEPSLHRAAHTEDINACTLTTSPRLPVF
T2 sequence (P15056 whole entry): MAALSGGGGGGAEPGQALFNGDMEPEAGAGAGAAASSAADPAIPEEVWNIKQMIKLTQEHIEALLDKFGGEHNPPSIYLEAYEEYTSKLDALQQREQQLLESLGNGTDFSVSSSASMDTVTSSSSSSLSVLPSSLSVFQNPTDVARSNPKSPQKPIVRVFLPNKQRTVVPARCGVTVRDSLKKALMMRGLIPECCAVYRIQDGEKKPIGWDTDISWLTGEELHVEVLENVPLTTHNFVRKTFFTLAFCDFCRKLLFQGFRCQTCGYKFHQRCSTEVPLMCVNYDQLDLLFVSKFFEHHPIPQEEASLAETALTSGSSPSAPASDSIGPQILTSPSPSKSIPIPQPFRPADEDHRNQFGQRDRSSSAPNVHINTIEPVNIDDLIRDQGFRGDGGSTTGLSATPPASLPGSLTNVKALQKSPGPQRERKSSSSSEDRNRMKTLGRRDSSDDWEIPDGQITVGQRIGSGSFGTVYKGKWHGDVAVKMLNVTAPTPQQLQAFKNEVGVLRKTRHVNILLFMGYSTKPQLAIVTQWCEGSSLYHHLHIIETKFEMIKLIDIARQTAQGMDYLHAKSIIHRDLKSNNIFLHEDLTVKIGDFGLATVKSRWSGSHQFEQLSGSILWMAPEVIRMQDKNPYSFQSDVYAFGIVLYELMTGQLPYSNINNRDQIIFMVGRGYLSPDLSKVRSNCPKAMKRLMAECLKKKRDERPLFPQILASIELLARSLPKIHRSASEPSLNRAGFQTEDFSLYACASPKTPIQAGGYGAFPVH

Row | Structure (SMILES) | IC50 [1] | IC50 [2] | IC50 [3] | HCT116 pERK (Ymin %) [3] | IC50 ([3]; Homo sapiens, HCT-116)
1 | O=S(=O)(CC1CCOCC1)c1cn(-c2nc3c(Nc4c(F)ccc(NS(=O)(=O)c5cccc(Cl)c5Cl)c4F)ncnc3s2)c2ccccc12 [Example 65] | 10 to 50 nM | 1 to 10 nM | 500 to 1000 nM | −3% | 
2 | CN(C1CCOC1)S(=O)(=O)c1cn(-c2nc3c(Nc4c(F)ccc(NS(=O)(=O)c5cccc(Cl)c5Cl)c4F)ncnc3s2)c2ccccc12 (stereo not drawn) [Example 66] | 10 to 50 nM | 1 to 10 nM | < 500 nM | −13% | 
3 | O=S(=O)(Nc1ccc(F)c(Nc2ncnc3sc(-n4cc(S(=O)(=O)N5C6CCC5COC6)c5ccccc54)nc23)c1F)c1cccc(Cl)c1Cl [Example 67] | > 50 nM | 1 to 10 nM | < 500 nM | 0% | 
4 | CN1CC2CCC(C1)N2S(=O)(=O)c1cn(-c2nc3c(Nc4c(F)ccc(NS(=O)(=O)c5cccc(Cl)c5Cl)c4F)ncnc3s2)c2ccccc12 [Example 68] | 10 to 50 nM | 1 to 10 nM | < 500 nM | −6% | 
5 | CC1COCCN1S(=O)(=O)c1cn(-c2nc3c(Nc4c(F)ccc(NS(=O)(=O)c5cccc(Cl)c5Cl)c4F)ncnc3s2)c2ccccc12 (stereo not drawn) [Example 69] | 10 to 50 nM | > 10 nM | 500 to 1000 nM | −7% | 
6 | CCN(CCOC)S(=O)(=O)c1cn(-c2nc3c(Nc4c(F)ccc(NS(=O)(=O)c5cccc(Cl)c5Cl)c4F)ncnc3s2)c2ccccc12 [Example 70] | 10 to 50 nM | > 10 nM |  |  | 500 to 1000 nM
7 | O=S(=O)(Nc1ccc(F)c(Nc2ncnc3sc(-n4cnc5c(F)cc(F)cc54)nc23)c1F)c1cccc(Cl)c1Cl [Example 71] | < 10 nM | 1 to 10 nM |  |  | < 500 nM
8 | CS(=O)(=O)c1cn(-c2nc3c(Nc4c(F)ccc(NS(=O)(=O)c5cccc(Cl)c5Cl)c4F)ncnc3s2)c2ccccc12 [Example 72] | < 10 nM | 1 to 10 nM |  |  | 500 to 1000 nM
9 | CC(C)S(=O)(=O)c1cn(-c2nc3c(Nc4c(F)ccc(NS(=O)(=O)c5cccc(Cl)c5Cl)c4F)ncnc3s2)c2ccccc12 [Example 73] | > 50 nM | 1 to 10 nM | < 500 nM | −12% | 
10 | O=S(=O)(Nc1ccc(F)c(Nc2ncnc3sc(-n4cc(S(=O)(=O)N5CC(CO)C5)c5ccccc54)nc23)c1F)c1cccc(Cl)c1Cl [Example 74] | < 10 nM | 1 to 10 nM | 1000 to 10000 nM | −9% | 
11 | CN(CC(F)F)S(=O)(=O)c1cn(-c2nc3c(Nc4c(F)ccc(NS(=O)(=O)c5cccc(Cl)c5Cl)c4F)ncnc3s2)c2ccccc12 [Example 75] | 10 to 50 nM | > 10 nM | 1000 to 10000 nM | −5% | 
12 | O=S(=O)(Nc1ccc(F)c(Nc2ncnc3sc(-n4cc(S(=O)(=O)N5CC(C(F)F)C5)c5ccccc54)nc23)c1F)c1cccc(Cl)c1Cl [Example 76] | 10 to 50 nM | > 10 nM | 1000 to 10000 nM | −10% | 
13 | CC(C)(O)[C@@H]1CCCN1C(=O)c1cn(-c2nc3c(Nc4c(F)ccc(NS(=O)(=O)c5cccc(Cl)c5Cl)c4F)ncnc3s2)c2ccccc12 [Example 77] | 10 to 50 nM | 1 to 10 nM | 500 to 1000 nM | −5% | 
14 | C[C@]1(CO)CCCN1C(=O)c1cn(-c2nc3c(Nc4c(F)ccc(NS(=O)(=O)c5cccc(Cl)c5Cl)c4F)ncnc3s2)c2ccccc12 [Example 78] | 10 to 50 nM | 1 to 10 nM | 500 to 1000 nM | −14% | 
15 | COCCOc1ccc2c(ncn2-c2nc3c(Nc4c(F)ccc(NS(=O)(=O)c5cccc(Cl)c5Cl)c4F)ncnc3s2)c1F [Example 79] | < 10 nM | 1 to 10 nM |  |  | 500 to 1000 nM
16 | O=S(=O)(Nc1ccc(F)c(Nc2ncnc3sc(-n4cnc5c(F)c(OCCO)ccc54)nc23)c1F)c1cccc(Cl)c1Cl [Example 80] | < 10 nM | 1 to 10 nM |  |  | 1000 to 10000 nM
17 | O=C(c1cn(-c2nc3c(Nc4c(F)ccc(NS(=O)(=O)c5cccc(Cl)c5Cl)c4F)ncnc3s2)c2ccc(Cl)cc12)N1C2CCC1COC2 [Example 81] | 10 to 50 nM | 1 to 10 nM | 500 to 1000 nM | −8% | 
18 | C[C@@H]1CN(S(=O)(=O)c2cn(-c3nc4c(Nc5c(F)ccc(NS(=O)(=O)c6cccc(Cl)c6Cl)c5F)ncnc4s3)c3ccccc23)C[C@H](C)N1 [Example 82] | 10 to 50 nM | 1 to 10 nM | 500 to 1000 nM | −13% | 
19 | CN(CCN1CCOCC1)S(=O)(=O)c1cn(-c2nc3c(Nc4c(F)ccc(NS(=O)(=O)c5cccc(Cl)c5Cl)c4F)ncnc3s2)c2ccccc12 [Example 83] | 10 to 50 nM | 1 to 10 nM | 500 to 1000 nM | −10% | 

Row | Structure (SMILES) | IC50 [1] | IC50 [2] | IC50 [3] | HCT116 pERK (Ymin %) [3] | IC50 ([3]; Homo sapiens, HCT-116)
20 | O=C(c1cn(-c2nc3c(Nc4c(F)ccc(NS(=O)(=O)c5cccc(Cl)c5Cl)c4F)ncnc3s2)c2ccccc12)N1CC2CC1CO2 (stereo not drawn) [Example 84] | < 10 nM | 1 to 10 nM | < 500 nM | 18% | 
21 | CC1(O)CCN(C(=O)c2cn(-c3nc4c(Nc5c(F)ccc(NS(=O)(=O)c6cccc(Cl)c6Cl)c5F)ncnc4s3)c3ccccc23)CC1 [Example 85] | < 10 nM | 1 to 10 nM | < 500 nM | 8% | 
22 | O=C(c1cn(-c2nc3c(Nc4c(F)ccc(NS(=O)(=O)c5cccc(Cl)c5Cl)c4F)ncnc3s2)c2ccccc12)N1C2CCC1CC(O)C2 (stereo not drawn) [Example 86] | < 10 nM | 1 to 10 nM | < 500 nM | 4% | 
23 | CC(C)(O)C1CN(C(=O)c2cn(-c3nc4c(Nc5c(F)ccc(NS(=O)(=O)c6cccc(Cl)c6Cl)c5F)ncnc4s3)c3ccccc23)C1 [Example 87] | < 10 nM | 1 to 10 nM | 500 to 1000 nM | −8% | 
24 | CC(=O)c1cn(-c2nc3c(Nc4c(F)ccc(NS(=O)(=O)c5cccc(Cl)c5Cl)c4F)ncnc3s2)c2ccccc12 [Example 88] | > 50 nM | 1 to 10 nM | 1000 to 10000 nM | −8% | 
25 | O=C(c1cn(-c2nc3c(Nc4c(F)ccc(NS(=O)(=O)c5cccc(Cl)c5Cl)c4F)ncnc3s2)c2ccccc12)N1CCC2CCCCC2(O)C1 (stereo not drawn) [Example 89] | > 50 nM | 1 to 10 nM | < 500 nM | −16% | 
26 | CC(C)(O)[C@@H]1CCN(C(=O)c2cn(-c3nc4c(Nc5c(F)ccc(NS(=O)(=O)c6cccc(Cl)c6Cl)c5F)ncnc4s3)c3ccccc23)C1 [Example 90] | < 10 nM | 1 to 10 nM | < 500 nM | −6% | 
27 | CCC(=O)c1cn(-c2nc3c(Nc4c(F)ccc(NS(=O)(=O)c5cccc(Cl)c5Cl)c4F)ncnc3s2)c2ccccc12 [Example 91] | > 50 nM | > 10 nM |  |  | 1000 to 10000 nM
28 | CC(C)C(=O)c1cn(-c2nc3c(Nc4c(F)ccc(NS(=O)(=O)c5cccc(Cl)c5Cl)c4F)ncnc3s2)c2ccccc12 [Example 92] | > 50 nM | > 10 nM |  |  | 1000 to 10000 nM
29 | O=C(c1cn(-c2nc3c(Nc4c(F)ccc(NS(=O)(=O)c5cccc(Cl)c5Cl)c4F)ncnc3s2)c2cccc(F)c12)N1C2CCC1COC2 [Example 93] | < 10 nM | < 1 nM | 500 to 1000 nM | 3% | 
30 | CC1(O)CN(C(=O)c2cn(-c3nc4c(Nc5c(F)ccc(NS(=O)(=O)c6cccc(Cl)c6Cl)c5F)ncnc4s3)c3ccccc23)C1 [Example 94] | < 10 nM | 1 to 10 nM | < 500 nM | −10% | 
31 | CCC1(O)CN(C(=O)c2cn(-c3nc4c(Nc5c(F)ccc(NS(=O)(=O)c6cccc(Cl)c6Cl)c5F)ncnc4s3)c3ccccc23)C1 [Example 95] | < 10 nM | 1 to 10 nM | < 500 nM | −6% | 
32 | O=C(c1cn(-c2nc3c(Nc4c(F)ccc(NS(=O)(=O)c5cccc(Cl)c5Cl)c4F)ncnc3s2)c2ccccc12)N1CC(O)(C(F)(F)F)C1 [Example 96] | 10 to 50 nM | > 10 nM | 500 to 1000 nM | −1% | 
33 | O=C(c1cn(-c2nc3c(Nc4c(F)ccc(NS(=O)(=O)c5cccc(Cl)c5Cl)c4F)ncnc3s2)c2ccccc12)N1CCC(O)(C(F)(F)F)CC1 [Example 97] | 10 to 50 nM | > 10 nM | < 500 nM | −10% | 
34 | O=C(c1cn(-c2nc3c(Nc4c(F)ccc(NS(=O)(=O)c5cccc(Cl)c5Cl)c4F)ncnc3s2)c2ccccc12)N1C2CCC1CN(CCO)C2 [Example 98] | < 10 nM | 1 to 10 nM |  |  | < 500 nM
35 | COc1cccc2c1ncn2-c1nc2c(Nc3c(F)ccc(NS(=O)(=O)c4cccc(Cl)c4Cl)c3F)ncnc2s1 [Example 99] | < 10 nM | 1 to 10 nM |  |  | < 500 nM
36 | O=S(=O)(Nc1ccc(F)c(Nc2ncnc3sc(-n4cnc5c(F)cc(OCCO)cc54)nc23)c1F)c1cccc(Cl)c1Cl [Example 100] | < 10 nM | 1 to 10 nM |  |  | < 500 nM
37 | CC(C)(O)C1CCCN1C(=O)c1cn(-c2nc3c(Nc4c(F)ccc(NS(=O)(=O)c5cccc(Cl)c5Cl)c4F)ncnc3s2)c2ccc(F)cc12 (stereo not drawn) [Example 101] | 10 to 50 nM | > 10 nM | < 500 nM | 0% | 
